This note sets out measurements from patent publication US10301357B2, “Therapeutics for the induction of endogenous steroidogenesis and methods associated with their identification” (THE ROYAL INSTITUTION FOR THE ADVANCEMENT OF …, priority 2013, dated 2019).

“Also recorded” adds a separate entry of the source. Square brackets hold non-standard residues; d marks the D form. Peptide text beside a SMILES is read from it. dPhe(4-Cl) = N[C@H](Cc1ccc(Cl)cc1)C(=O)O; d2Nal = N[C@H](Cc1ccc2ccccc2c1)C(=O)O; dCit = NC(=O)NCCC[C@@H](N)C(=O)O; d3Pal = N[C@H](Cc1cccnc1)C(=O)O

Test [1] deals with adult Sprague-Dawley rats. Nature of the test: Cetrorelix i.p. injection, suppression of T and LH. It is filed as in vivo, rat. As for the experimental part: Animals studies. Animals were handled according to protocols approved by the McGill University Animal Care and Use Committees. 60- to 64-day-old male Sprague-Dawley rats were purchased from Charles River, Senneville, QC. Rats were provided standard diets and tap water ad libitum and were maintained in controlled conditions (24° C., 12-h light, 12-h dark schedule). Animals were euthanized, and the testes were either immediately used for organ culture or intratesticular fluid collection, or testes and adrenal glands were snap-frozen for sectioning. Bolus injections with water or indicated doses of TV peptides were performed after administering isofluorane anesthesia. Rats were injected with either water or the indicated dose of TV fusion peptide. When FGIN-1-27 (Sigma-Aldrich, St. Louis, Mo.) was used, 8.5 μg in 50 μl (390 μM) of the compound in 1% DMSO solution containing Tween-20™ was injected into one of the testes of 68-72 day old Sprague-Dawley rats. Animals were incubated in standard conditions for 2 hrs. Surgeries were performed on 60- to 64-day-old rats bolus injection of water or TV peptides. Alzet mini-osmotic pumps releasing 75 ng of filled with water or a TV peptide or water over a course of 24 hrs was surgically implanted in the abdomen. The pumps were connected to a polyethylene catheter tubing (Alzet) and directed to the injected testis. […]

Test [2] has as its system MA-10 mouse Leydig tumor cells. Nature of the test: Progesterone production by MA-10 cells after 8-Br-cAMP (RIA). Type of test: cell-based. The settings on record: 10 μM 19-Atriol with TVS167, 8-Br-cAMP 120 min. On the procedure:
Cell culture, treatments, and steroid measurement. MA-10 mouse Leydig tumor cells were maintained in DMEM/Ham's nutrient mixture F12 (Gibco, Burlington, ON) supplemented with 5% fetal bovine serum, 2.5% hoarse serum, and 1% penicillin and streptomycin at 37° C. and 3.7% CO2. Cells were incubated in serum-free cell culture media supplemented with 1 mM 8-Bromo-cAMP (Enzo Biosciences, Farmingdale, N.Y.) or […] (50 ng/ml) hCG for 15, 30, 60, and 120 min or as indicated. Human NCL-H295R cells were maintained in DMEM/F12 media supplemented with 2.5% Ultroser G (Pall Biospera, Mississauga, ON), 1% penicillin/streptomycin (Invitrogen, Carlsbad, Calif.), and 1% ITS+ Premix (BD Biosciences, Franklin Lakes, N.J.) in a humidified chamber at 37° C. and 5% CO2.
Experiments involving the TV peptides included 1×10^3 MA-10 or NCL-H295R cells, which were initially cultured for 24 hrs. Serum-free media were supplemented with 250 nM TV fusion peptides, and cells were incubated for 90 min after optimization. […]
Progesterone or testosterone levels were measured with specific RIAs in triplicate using commercial anti-sera from rabbit and sheep, respectively (MP Biomedicals, Santa Ana, Calif.). Protein levels in MA-10 cell lysates were determined with the Bradford dye assay (Bio-Rad). LH and corticosterone levels were measured with rat-specific ELISA kits (CUSABIO, Wuhan, China).

Test [3] deals with Sprague-Dawley rats. Nature of the test: FGIN-1-27 bolus intratesticular injection, T levels after 2 hrs. It is filed as in vivo, rat. The following applies: for intratesticular T levels / plasma T levels: 8.5 μg bolus, 2 hrs. As for the experimental part:
Animals studies. Animals were handled according to protocols approved by the McGill University Animal Care and Use Committees. 60- to 64-day-old male Sprague-Dawley rats were purchased from Charles River, Senneville, QC. Rats were provided standard diets and tap water ad libitum and were maintained in controlled conditions (24° C., 12-h light, 12-h dark schedule). Animals were euthanized, and the testes were either immediately used for organ culture or intratesticular fluid collection, or testes and adrenal glands were snap-frozen for sectioning. Bolus injections with water or indicated doses of TV peptides were performed after administering isofluorane anesthesia. Rats were injected with either water or the indicated dose of TV fusion peptide. When FGIN-1-27 (Sigma-Aldrich, St. Louis, Mo.) was used, 8.5 μg in 50 μl (390 μM) of the compound in 1% DMSO solution containing Tween-20™ was injected into one of the testes of 68-72 day old Sprague-Dawley rats. Animals were incubated in standard conditions for 2 hrs. Surgeries were performed on 60- to 64-day-old rats bolus injection of water or TV peptides. Alzet mini-osmotic pumps releasing 75 ng of filled with water or a TV peptide or water over a course of 24 hrs was surgically implanted in the abdomen. The pumps were connected to a polyethylene catheter tubing (Alzet) and directed to the injected testis. The pump released 75 ng TV peptide to the testis over a course of 24 hrs at the rate of 1 μl/hour. GnRH antagonist, Cetrorelix™ (Sigma Aldrich) was injected into 59-day-old rats intraperitoneally (i.p.) at 0.4 mg/animal/day for 0-4 days (Horvath et al. 2004). Animal dissection was performed after CO2 anesthesia. Cardiac puncture was used for blood collection, and further centrifugation yielded serum separation. Testes were dissected and either decapsulated for intratesticular fluid collection or snap-frozen for sectioning.
To further assess the link between VDAC1 and TSPO function in vivo, the acute effect of TVS167 was compared to that of a well characterized high affinity TSPO drug ligand, N,N-dihexyl-2-(4-fluorophenyl)indole-3-acetamide (FGIN-1-27) (Perheentupa et al. 2009), in the absence of LH signaling. Sprague-Dawley rats of 68-72 days old were given an i.p. injected of either H2O or 0.4 mg Cetrorelix™ for 0-4 days. On day 4, a bolus intratesticular injection of 8.5 μg FGIN-1-27 or its solvent (control) was given to one testis per animal. To assess the acute effect of this TSPO drug ligand on steroidogenesis intratesticular and circulating T levels were measured after 2 hrs.

Turning to `CC(=O)N[C@H](Cc1ccc2ccccc2c1)C(=O)N[C@H](Cc1ccc(Cl)cc1)C(=O)N[C@H](Cc1cccnc1)C(=O)N[C@@H](CO)C(=O)N[C@@H](Cc1ccc(O)cc1)C(=O)N[C@H](CCCNC(N)=O)C(=O)N[C@@H](CC(C)C)C(=O)N[C@@H](CCCNC(=N)N)C(=O)N1CCC[C@H]1C(=O)N[C@H](C)C(N)=O` [Cetrorelix] (Ac-[d2Nal][dPhe(4-Cl)][d3Pal]SY[dCit]LRP[dA]-NH2), the “T levels in testes and serum” value in test [1] (0.4 mg/day i.p. for four days) is “completely suppressed; also recorded: blocked”. Moreover, the LH release entry in test [1] (adult rats) is given as “blocked LH release”.
With `C[C@]12CC[C@H]3[C@@H](CC=C4C[C@@H](O)CC[C@@]43CO)[C@@H]1CC[C@@H]2O` [19-Atriol], the “effect on TVS167-stimulated steroid formation” value in test [2] was “stimulatory effect of TVS167 on steroid formation was blocked”.
As for `CCCCCCN(CCCCCC)C(=O)Cc1c(-c2ccc(F)cc2)[nH]c2ccccc12` [FGIN-1-27, N,N-dihexyl-2-(4-fluorophenyl)indole-3-acetamide], in test [3] (Cetrorelix-treated rats), the “intratesticular T levels” value was “significant increase” and the “plasma T levels” value was “increased”. In addition, in test [3] (control (H2O i.p.) rats), the “intratesticular T levels” value is reported as “significant increase” and the “plasma T levels” value is given as “increased only in the Cetrorelix-treated animals”. Further, the “acute T formation in vivo compared with TVS167” value in test [3] (control and Cetrorelix-treated rats) was “to a lesser extent that TVS167”.
